According to the supplement of paper PMC10307832:

Assays:
Assay in all cases: relative viability (nuclei count vs DMSO), 5 days (fraction); higher = more cells survive
kb NB 142-70 = compound: C1CSC2=C(C(=O)N1)SC3=C2C=C(C=C3)O [kb NB 142-70]
Procedure, shortened: (§1)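 Acceptance criteria were a control CV below 25% and at least one doubling per plate. Lung cancer cell lines in 1536-well plates got five library-drug doses (not always all listed) √10 apart by pinning and were left 5 days with no medium change. Viability divides treated-well nuclei by vehicle-well nuclei and is the median across plates. Nuclei were counted by MetaXpress from 4× Hoechst images.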

[1] = compound: NCC(=O)Nc1ccc(-n2nc(C(F)(F)F)cc2-c2ccc3c(ccc4ccccc43)c2)cc1
Procedure, shortened: as §1

[2] = compound: C1CSC2=C(C(=O)N1)SC3=C2C=C(C=C3)O [kb NB 142-70] + Nc1ncn([C@H]2C[C@H](O)[C@@H](CO)O2)c(=O)n1 [Decitabine] (partner 2 µM)
Procedure, shortened: (§2)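 After 5 days of treatment, lung cancer cells in 1536-well plates were fixed and stained in a single step (final 0.05% Triton X-100, 1% formaldehyde, 1 ug/ml Hoechst) and their nuclei counted on 4× images. Treatment had been applied by pin tool the day after seeding as one drug alone or as a fixed anchor-drug dose with five library-drug doses (not always all listed) in √10 steps. Relative viability is the nuclei count of treated wells divided by that of vehicle wells, and values are medians of duplicate plates.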

[3] = compound: NCC(=O)Nc1ccc(-n2nc(C(F)(F)F)cc2-c2ccc3c(ccc4ccccc43)c2)cc1 + C[C@]1(O)C[C@@H](c2nc(-c3ccc4ccc(-c5ccccc5)nc4c3)c3c(N)nccn32)C1 [Linsitinib] (partner 1 µM)
Procedure, shortened: as §2

Cell Line: UMC-11
- relative viability (kb NB 142-70; 0.1 µM): 1.03
- relative viability (kb NB 142-70; 1 µM): 0.973
- relative viability (kb NB 142-70; 3.162 µM): 0.572
- relative viability ([1]; 0.02 µM): 0.93
- relative viability ([1]; 0.06325 µM): 1
- relative viability ([1]; 0.2 µM): 1.05
- relative viability ([1]; 0.6325 µM): 1.01
- relative viability ([1]; 2 µM): 0.931
- relative viability ([2]; first compound 0.1 µM): 0.547
- relative viability ([2]; first compound 1 µM): 0.639
- relative viability ([2]; first compound 3.162 µM): 0.378
- relative viability ([3]; first compound 0.02 µM): 0.995
- relative viability ([3]; first compound 0.06325 µM): 1.03
- relative viability ([3]; first compound 0.2 µM): 1.16
- relative viability ([3]; first compound 0.6325 µM): 0.966
- relative viability ([3]; first compound 2 µM): 0.918
